Measured values: patent US9622482B2, “Methods for increasing oil palm yield” (Valent BioSciences Corporation, priority 2014, dated 2017)

Key:
oil palm fruit [1] = details: postharvest application, detached bunches; cited from earlier work
oil palm = test: Pre-harvest bunch-directed spray on oil palm, fruit abscission (cumulative loose fruit and loose mass); type: in vivo, oil palm (cross between Compact and Ghana); details: for % Difference with UTC (Cumulative Loose Fruit) / % Difference with UTC (Cumulative Loose Mass) / Cumulative Loose Mass / Cumulative Loose Fruit: single spray 100 mL/bunch; for % Difference with UTC (Cumulative Loose Fruit) / % Difference with UTC (Cumulative Loose Mass) / Cumulative Loose Mass: 14 days; for Cumulative Loose Fruit: counted for 14 days
Experimental: A study was conducted in a plantation in Costa Rica to compare the effects of single bunch-directed applications of: (1) untreated control (water sprayed); (2) AVG at 500 ppm active ingredient (a.i.); (3) 240 ppm a.i. of STS; (4) 720 ppm a.i. of STS; (5) 2,200 ppm a.i. of STS; and (6) 6,600 ppm a.i. of STS. In this study, AVG was provided in a formulation as AVG-HCl at a concentration of 20%. STS was prepared using a 100 mM sodium thiosulfate treatment. For each treatment, 23 palms were randomly selected covering about 15 hectares. The variety of plants used was a cross between Compact and Ghana. The plants were three years old at the time of treatment. A CO2 sprayer was used to spray all treatments (100 mL/bunch) to bunches with 1 to 4 loose fruits. The time required to spray each bunch was about 8 seconds at 20 psi using a 2.0 full cone nozzle. The treatments were applied once per bunch. Ten and thirteen bunches per treatment were sprayed on Apr. 15 and 22, 2015, respectively. Cumulative loose fruit (CLF) and cumulative loose mass (CLM) counts were determined on a daily basis for 14 days with the exception of day 4 and day 9 (for second spray only) and day 11 (after initial spray only) as measure to objectively quantify fruit abscission. An electronic balance was used to weigh all fruit. All loose fruit on the bunch, branches and on the ground was counted and weighed.

oil palm fruit [2] = details: preharvest application to attached bunches; cited from earlier work
[3] = 240 to 6,600 ppm a.i., overall statement

Compound: NOCC(=O)O [AOA, aminooxyacetic acid]
- abscission of oil palm fruit (oil palm fruit [1]): delayed or suppressed abscission

Compound: NCCO/C=C/[C@H](N)C(=O)O [AVG, aminoethyoxyvinylglycine, reference compound]
- % Difference with UTC (Cumulative Loose Fruit) (oil palm; 500 ppm a.i.): 71.4%
- % Difference with UTC (Cumulative Loose Mass) (oil palm; 500 ppm a.i.): 70.8%
- Cumulative Loose Mass (oil palm; 500 ppm a.i.): 321 g
- Cumulative Loose Fruit (oil palm; 500 ppm a.i.): 72.0

Compound: O=P(O)(O)CCCl [ethephon, 2-chloroethyl phosphonic acid]
- increase of oil content (oil palm fruit [2]): 7%

Compound: silverthiosulfate [STS]
- % Difference with UTC (Cumulative Loose Fruit) (oil palm; 240 ppm a.i.): 14.4%
- % Difference with UTC (Cumulative Loose Mass) (oil palm; 240 ppm a.i.): −0.4%
- Cumulative Loose Mass (oil palm; 240 ppm a.i.): 1106 g
- Cumulative Loose Fruit (oil palm; 240 ppm a.i.): 129.0
- effect on cumulative loose fruit (oil palm; [3]): did not consistently decrease
- effect on cumulative loose mass (oil palm; [3]): did not consistently decrease
- % Difference with UTC (Cumulative Loose Fruit) (oil palm; 720 ppm a.i.): 18.7%
- % Difference with UTC (Cumulative Loose Mass) (oil palm; 720 ppm a.i.): 11.3%
- Cumulative Loose Mass (oil palm; 720 ppm a.i.): 977 g
- Cumulative Loose Fruit (oil palm; 720 ppm a.i.): 124.7
- % Difference with UTC (Cumulative Loose Fruit) (oil palm; 2,200 ppm a.i.): −15.7%
- % Difference with UTC (Cumulative Loose Mass) (oil palm; 2,200 ppm a.i.): −26.4%
- Cumulative Loose Mass (oil palm; 2,200 ppm a.i.): 1392 g
- Cumulative Loose Fruit (oil palm; 2,200 ppm a.i.): 159.1
- % Difference with UTC (Cumulative Loose Fruit) (oil palm; 6,600 ppm a.i.): 25.9%
- % Difference with UTC (Cumulative Loose Mass) (oil palm; 6,600 ppm a.i.): 7.3%
- Cumulative Loose Mass (oil palm; 6,600 ppm a.i.): 1020 g
- Cumulative Loose Fruit (oil palm; 6,600 ppm a.i.): 117.5
